Data: patent publication US9241962B2, “Water extract of Antrodia camphorata for immunostimulatory effect and preparation method thereof” (Kaohsiung Medical University, priority 2009, dated 2016)

Assays:
Format in all cases: cell-based, human
DCs [1] = test: Inhibition of MAPKs and PI3K/Akt activation before ACW stimulation of DCs; details: inhibitor 25 μM for 2 hours before ACW; for IL-12 production of DCs induced by ACW after inhibitor pretreatment: FIG. 13(B)
Protocol: To examine the signal transduction pathways involved in the effects of ACW on DC maturation, DCs were pretreated at 37° C. with ERK inhibitor PD98059 (25 μM), JNK inhibitor SP600125 (25 μM), p38 MAPK inhibitor SB203580 (25 μM) or PI3K/Akt inhibitor LY294002 (25 μM) for 2 hours before stimulation with ACW. After 2 days, phenotyping characteristics of DCs and IL-12 production in the supernatants of DCs were analyzed.

DCs [2] = test: Polymyxin B test of CD86 and HLA-DR expression on induced DCs; details: DCs treated with polymyxin B, then LPS or ACW; FIG. 7
Protocol: Polymyxin B is an antibiotic used for inactivating potential LPS contamination when evaluating the activity of different agents on immune cells. Therefore, whether polymyxin B blocks the phenotypic maturation of ACW-induced DCs is determined. […] Accordingly, ACW is able to stimulate the maturation of DCs without LPS contamination.

DCs [3] = test: IL-12 production in culture supernatants of stimulated DCs; parameters: unit not given here; details: LPS; PBS 235.53±2.54; FIG. 9
Protocol: The preparation method of DCs was mainly prepared and modified from Lin et al, 2006. First, peripheral blood mononuclear cells (PBMCs) were obtained from 12 healthy donors by centrifugation with the Ficoll-Hypaque (Amersham Bioscience, Uppsala, Sweden) density gradient centrifugation. PBMCs were cultured in RPMI 1640 medium supplemented with 10% fetal calf serum, 1 mM L-glutamin, 100 μg/ml streptomycin and 100 U/ml penicillin for 2 hours. The nonadherent cells were removed, and the T cells were purified by nylon wool separation, as the source of mononuclear T lymphocytes. T cells were loaded into the column and the eluted nonadherent cell fraction was rich in T cells. As determined by FACS, the resulting cell population was 80% T cells with a high expression of CD3. The adherent cells were cultured for 6 days in RPMI 1640 medium with 50 ng/ml of granulocyte-macrophage colony-stimulating factor (GM-CSF) and interleukin-4 (IL-4). […] ImDCs were further treated with phosphate buffered saline (PBS), LPS (100 ng/ml) and different doses of ACW for an additional 2 days and then assessed by flow cytometry.
Levels of IL-12, IL-10, IFN-γ and IL-4 in the culture supernatants from DCs or T cells were evaluated by using highly sensitive human cytokine assay kits (R&D Systems, Minneapolis, USA) according to the manufacturer's instructions.

COc1cccc(-c2cc(=O)c3ccccc3o2)c1N [PD98059]
IL-12 production of DCs induced by ACW after inhibitor pretreatment (DCs [1]): upregulates the IL-12 production

C[S+]([O-])c1ccc(-c2nc(-c3ccncc3)c(-c3ccc(F)cc3)[nH]2)cc1 (centres unmarked) [SB203580]
CD86 expression of the ACW-treated DCs after inhibitor pretreatment (DCs [1]; FIG. 13(A)): inhibit CD86 expression
IL-12 production of DCs induced by ACW after inhibitor pretreatment (DCs [1]): significantly blocks the up-regulation of IL-12 production

lipopolysaccharide [LPS]
expressions of CD86 and HLA-DR after polymyxin B treatment in advance (DCs [2]): significantly inhibits the expressions of CD86 and HLA-DR
concentration of IL-12 produced by DCs (DCs [3]): 698.45
